In article PMC7765920 (Molecules, 2020) one finds remaining activity data, which are given here for 25 molecules.

Holding throughout (type): biochemical
One test has as its target T1, human recombinant MAO-A (Homo sapiens, UniProt P21397).
T1 sequence (P21397 1-527): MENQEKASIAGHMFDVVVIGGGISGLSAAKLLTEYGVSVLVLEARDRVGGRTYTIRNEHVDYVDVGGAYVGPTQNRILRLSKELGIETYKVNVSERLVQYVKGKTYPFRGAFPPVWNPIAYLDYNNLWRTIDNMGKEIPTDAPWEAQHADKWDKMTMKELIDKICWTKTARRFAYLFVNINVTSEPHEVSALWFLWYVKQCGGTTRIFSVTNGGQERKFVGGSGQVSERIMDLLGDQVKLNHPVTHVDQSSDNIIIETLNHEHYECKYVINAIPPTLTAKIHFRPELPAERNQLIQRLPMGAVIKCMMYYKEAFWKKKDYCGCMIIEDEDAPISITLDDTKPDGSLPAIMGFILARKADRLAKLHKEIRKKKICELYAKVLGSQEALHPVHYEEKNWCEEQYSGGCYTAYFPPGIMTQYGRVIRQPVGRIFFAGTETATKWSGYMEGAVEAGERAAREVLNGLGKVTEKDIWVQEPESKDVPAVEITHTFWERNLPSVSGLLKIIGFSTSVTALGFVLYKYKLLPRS
As to the kind of experiment: MAO-GLO luminescence assay of MAO-A catalytic activity. Particulars: read-out: MAO-A residual activity. Here is the method: (§1) Optimization of the compounds, however, aimed predominantly at elimination of MAO-A-inhibitory activity while keeping DYRK1A inhibitory potency, and not at achieving high selectivity for DYRK1A over CLK1. The tests were performed as described by us before in detail. Due to the very large number of test compounds (more than 60), a first screening was performed at a single inhibitor concentration of 1 µM.
(§2) Inhibitors were dissolved in DMSO at a concentration of 10 mM and stored at […]. Working solutions were prepared to achieve a final concentration of 1 µM in the enzyme assays.
Catalytic activity of monoamine oxidase A (MAO-A) was measured by using the luminescence-based MAO-GLO^TM Assay from Promega. Recombinant MAO-A converts a luminogenic MAO substrate into luciferin, which is, in turn, luminometrically detected in a luciferase reaction. The amount of light produced is directly proportional to MAO activity. […] Inhibitory effects of the tested compounds were calculated relative to the activity of control reactions that were run in the absence of inhibitors.

Test [1] addresses T2, GST-DYRK1A-ΔC (amino acids 1–499 of rat DYRK1A) (Rattus norvegicus, UniProt Q63470).
T2 construct: containing amino acids 1–499 of rat DYRK1A; made in house; host or cells: E. coli
Put plainly: Kinase-GLO luminescent assay of DYRK1A catalytic activity. The conditions noted are these: read-out: DYRK1A residual activity. Here is the method:
as §1, §2
(§3) Recombinant kinases were purified from E. coli as GST (glutathione S-transferase) fusion constructs by affinity adsorption to glutathione-Sepharose. […] Catalytic activity of the kinases was measured with the help of the Kinase-GLO^TM Luminescent Assay from Promega. Assays were performed in a total volume of 10 μL in kinase buffer (25 mM Hepes pH 7.4, 0.5 mM DTT, 5 mM MgCl2, 5 μM ATP) with appropriate peptide substrates (20 μM DYRKtide for the DYRKs and 100 μM DYRKtide for HIPK2, […]; or 100 μM RS peptide for CLK1, […]). Kinases amounts in the assays were adjusted so that approximately 90% of the ATP in the assay was consumed in control samples without inhibitor. Kinase reactions were incubated at room temperature for 30 min before 10 μL Kinase-GLO reagent was added for luminometric measurement of the ATP that was not consumed by the kinases. After incubation at room temperature for an additional 10 min, luminescence was recorded for 1 s (Berthold Orion Microplate Luminometer). ATP consumption in the control samples without inhibitor was set as 100% catalytic activity, and the inhibitory effects of the test compounds were calculated relative to this value.
(Kinase-Glo measures the ATP left after a reaction by luminescence.)

In test [2] the target is T3, GST-CLK1cat (amino acids 141–484 of human CLK1) (Homo sapiens, UniProt P49759).
T3 construct: containing amino acids 141–484 of human CLK1; made in house; host or cells: E. coli
T3 sequence (P49759 141-484): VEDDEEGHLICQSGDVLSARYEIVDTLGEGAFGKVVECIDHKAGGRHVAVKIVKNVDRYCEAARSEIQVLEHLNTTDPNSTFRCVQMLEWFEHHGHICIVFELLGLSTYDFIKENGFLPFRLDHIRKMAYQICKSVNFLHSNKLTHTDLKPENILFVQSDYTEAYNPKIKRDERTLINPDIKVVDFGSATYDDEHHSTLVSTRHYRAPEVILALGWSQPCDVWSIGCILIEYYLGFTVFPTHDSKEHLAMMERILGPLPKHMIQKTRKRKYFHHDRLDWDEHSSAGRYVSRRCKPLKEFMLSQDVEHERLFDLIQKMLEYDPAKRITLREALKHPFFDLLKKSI
Put plainly: Kinase-GLO luminescent assay of CLK1 catalytic activity. The conditions noted are these: read-out: CLK1 residual activity. The procedure:
as §1, §2, §3

Setting [3] is: 1 µM inhibitor concentration, residual activity relative to control without inhibitor.

Where two headings read alike, the source gives them in different places.

As for `COc1ccc2c3ccnc(C)c3n(Cc3ccncc3)c2c1` [AnnH36, 7-Methoxy-1-methyl-9-(pyridin-4-yl-methyl)-9H-pyrido[3,4-b]indole], the remaining activity at 1 µM worked out at 19% on human recombinant MAO-A (setting [3]), 59% in test [1] (setting [3]) and 62% in test [2] (setting [3]).
The corresponding values for `COc1ccc2c3ccnc(C)c3n(CCCc3ccccc3)c2c1` [AnnH38, 7-Methoxy-1-methyl-9-(3-phenylpropyl)-9H-pyrido[3,4-b]indole] are 127%, 12% and 31%.
For `COc1ccc2c3ccnc(C)c3n(Cc3ccc4ccccc4c3)c2c1` [AnnH39, 7-Methoxy-1-methyl-9-(2-naphthylmethyl)-9H-pyrido[3,4-b]indole] the same measures were 125%, 91% and 84%.
Regarding `COc1ccc2c3ccnc(C)c3n(CCOc3ccccc3)c2c1` [AnnH40, 7-Methoxy-1-methyl-9-(2-phenoxyethyl)-9H-pyrido[3,4-b]indole], the figures for the remaining activity at 1 µM (at human recombinant MAO-A (setting [3]); in test [1] (setting [3]); in test [2] (setting [3])) were 30%, 40% and 37%, respectively.
Consider `COc1ccc2c3ccnc(C)c3n(CCC#N)c2c1` [AnnH42, 3-(7-Methoxy-1-methyl-9H-pyrido[3,4-b]indol-9-yl)propanenitrile], for which the remaining activity at 1 µM at human recombinant MAO-A (setting [3]) amounted to 114%; in test [1] (setting [3]) it was 22%; in test [2] (setting [3]), 44%.
Turning to `C#CCn1c2cc(OC)ccc2c2ccnc(C)c21` [AnnH44, 7-Methoxy-1-methyl-9-(prop-2-yn-1-yl)-9H-pyrido[3,4-b]indole], the remaining activity at 1 µM at human recombinant MAO-A (setting [3]) came out at 22%; in test [1] (setting [3]), 2%; in test [2] (setting [3]), 17%.
For `Clc1ccc2c([nH]c3c(Br)nccc32)c1Cl` [AnnH52, 1-Bromo-7,8-dichloro-9H-pyrido[3,4-b]indole], the values for the remaining activity at 1 µM (at human recombinant MAO-A (setting [3]); in test [1] (setting [3]); in test [2] (setting [3])) were 118%, 36% and 45%, respectively.
For `COc1ccc2c3ccnc(C)c3n(CCN3CCCC3)c2c1` [AnnH55, 7-Methoxy-1-methyl-9-[2-(pyrrolidin-1-yl)ethyl]-9H-pyrido[3,4-b]indole] the same measures were 67%, 48% and 85%.
In the case of `COc1ccc2c3ccnc(C)c3n(CCN3CCCCC3)c2c1` [AnnH57, 7-Methoxy-1-methyl-9-[2-(piperidin-1-yl)ethyl]-9H-pyrido[3,4-b]indole], the results for the remaining activity at 1 µM (on human recombinant MAO-A (setting [3]); in test [1] (setting [3]); in test [2] (setting [3])) were 97%, 33% and 78%, respectively.
For `COc1ccc2c3ccnc(C)c3n(C(C)=O)c2c1` [AnnH59, 1-(7-Methoxy-1-methyl-9H-pyrido[3,4-b]indol-9-yl)ethan-1-one] the same measures were 19%, 30% and 15%.
For `Cc1nccc2c1[nH]c1c(Cl)c(Cl)ccc12` [AnnH63, 7,8-Dichloro-1-methyl-9H-pyrido[3,4-b]indole], the remaining activity at 1 µM on human recombinant MAO-A (setting [3]) was 32%; in test [1] (setting [3]) it was 3%; in test [2] (setting [3]) it was 26%.
For `CCOC(=O)Cn1c2c(C)nccc2c2ccc(Cl)c(Cl)c21` [AnnH66, Ethyl 2-(7,8-Dichloro-1-methyl-9H-pyrido[3,4-b]-9-yl)acetate], the remaining activity at 1 µM on human recombinant MAO-A (setting [3]) is 78%; in test [1] (setting [3]), 26%; in test [2] (setting [3]), 71%.
For `C#CCn1c2c(C)nccc2c2ccc(Cl)c(Cl)c21` [AnnH67, 7,8-Dichloro-1-methyl-9-(prop-2-yn-1-yl)-9H-pyrido[3,4-b]indole], the remaining activity at 1 µM turned out to be 122% on human recombinant MAO-A (setting [3]), 17% in test [1] (setting [3]) and 34% in test [2] (setting [3]).
For `Cc1nccc2c3ccc(Cl)c(Cl)c3n(CC#N)c12` [AnnH69, 2-(7,8-Dichloro-1-methyl-9H-pyrido[3,4-b]indol-9-yl)acetonitrile], the remaining activity at 1 µM at human recombinant MAO-A came out at 101%; in test [1] it was 17%; in test [2] it was 33%.
Turning to `COc1ccc2c3ccnc(C)c3n(CC=C(C)C)c2c1` [AnnH73, 7-Methoxy-1-methyl-9-(3-methylbut-2-en-1-yl)-9H-pyrido[3,4-b]indole], the figures for the remaining activity at 1 µM (at human recombinant MAO-A; in test [1]; in test [2]) were 52%, 6% and 2%, respectively.
For `C#CCn1c2cc(OC)ccc2c2ccnc(Cl)c21` [AnnH74, 1-Chloro-7-methoxy-9-(prop-2-yn-1-yl)-9H-pyrido[3,4-b]indole], the remaining activity at 1 µM on human recombinant MAO-A (setting [3]) amounted to 112%; in test [1] (setting [3]), 12%; in test [2] (setting [3]) it was 46%.
For `CCOC(=O)Cn1c2cc(OC)ccc2c2ccnc(Cl)c21` [AnnH76, Ethyl 2-(1-Chloro-7-methoxy-9H-pyrido[3,4-b]indol-9-yl)acetate], the remaining activity at 1 µM was 112% at human recombinant MAO-A (setting [3]), 35% in test [1] (setting [3]) and 96% in test [2] (setting [3]).
As for `N#CCn1c2c(Br)nccc2c2ccc(Cl)c(Cl)c21` [AnnH79, 2-(1-Bromo-7,8-dichloro-9H-pyrido[3,4-b]indol-9-yl)-acetonitrile], the remaining activity at 1 µM at human recombinant MAO-A (setting [3]) stood at 143%; in test [1] (setting [3]), 93%; in test [2] (setting [3]), 88%.
In the case of `C#CCn1c2c(Br)nccc2c2ccc(Cl)c(Cl)c21` [AnnH80, 1-Bromo-7,8-dichloro-9-(prop-2-yn-1-yl)-9H-pyrido[3,4-b]indole], the remaining activity at 1 µM on human recombinant MAO-A (setting [3]) was 123%; in test [1] (setting [3]), 95%; in test [2] (setting [3]), 84%.
The corresponding values for `CCOC(=O)Cn1c2cc(OC)ccc2c2ccnc(CC)c21` [AnnH88, Ethyl 2-(1-ethyl-7-methoxy-9H-pyrido[3,4-b]indol-9-yl)acetate] are 137%, 47% and 52%.
The corresponding values for `CCc1nccc2c1[nH]c1cc(OC)ccc12` [AnnH89, 1-Ethyl-7-methoxy-9H-pyrido[3,4-b]indole] are 34%, 37% and 7%.
In the case of `COc1ccc2c(c1)[nH]c1c(C)cccc12` [AnnHOG3, 7-Methoxy-1-methyl-9H-carbazole], the remaining activity at 1 µM turned out to be 100% at human recombinant MAO-A (setting [3]), 71% in test [1] (setting [3]) and 97% in test [2] (setting [3]).
On to `COc1ccc2c(c1)C(=O)c1c-2ccnc1C` [AnnHT2, 7-Methoxy-1-methyl-9H-indeno-[2,1-c]pyridin-9-one], for which the remaining activity at 1 µM came out at 15% on human recombinant MAO-A (setting [3]), 55% in test [1] (setting [3]) and 54% in test [2] (setting [3]).
For the molecule `COc1ccc2c(c1)/C(=C\C#N)c1c-2ccnc1C` [AnnHT5, (2E)-(7-Methoxy-1-methyl-9H-indeno[2,1c]pyridin-9-ylidene)ethanenitrile], the values for the remaining activity at 1 µM (at human recombinant MAO-A (setting [3]); in test [1] (setting [3]); in test [2] (setting [3])) were 65%, 35% and 7%, respectively.
Turning to `Cc1nccc2c1C(=O)c1cc(O)ccc1-2` [AnnHT6, 7-Hydroxy-1-methyl-9H-indeno-[2,1-c]pyridin-9-one], the remaining activity at 1 µM came out at 46% on human recombinant MAO-A (setting [3]), 37% in test [1] (setting [3]) and 27% in test [2] (setting [3]).
